Data taken from patent publication US9187497B2, “Substituted pyrido[3,2-e]pyrrolo[1,2-a]pyrazines as inhibitors of poly(ADP-ribose)polymerase (PARP)” (Takeda Phamaceutical Company Limited, priority 2009, dated 2015).

What was measured:
PARP = target: T1, PARP (Homo sapiens, UniProt P09874); assay: PARP ELISA colorimetric assay of inhibition of PARP catalytic activity (IC50); format: biochemical; settings: pIC50=-log(IC50), IC50 in molar concentration; ELISA-based PARP kit, 10 minutes of catalysis
T1 construct: purchased Trevigen 4684-096-01 (enzyme); kit 4684-096-K HT
T1 sequence (P09874 whole entry): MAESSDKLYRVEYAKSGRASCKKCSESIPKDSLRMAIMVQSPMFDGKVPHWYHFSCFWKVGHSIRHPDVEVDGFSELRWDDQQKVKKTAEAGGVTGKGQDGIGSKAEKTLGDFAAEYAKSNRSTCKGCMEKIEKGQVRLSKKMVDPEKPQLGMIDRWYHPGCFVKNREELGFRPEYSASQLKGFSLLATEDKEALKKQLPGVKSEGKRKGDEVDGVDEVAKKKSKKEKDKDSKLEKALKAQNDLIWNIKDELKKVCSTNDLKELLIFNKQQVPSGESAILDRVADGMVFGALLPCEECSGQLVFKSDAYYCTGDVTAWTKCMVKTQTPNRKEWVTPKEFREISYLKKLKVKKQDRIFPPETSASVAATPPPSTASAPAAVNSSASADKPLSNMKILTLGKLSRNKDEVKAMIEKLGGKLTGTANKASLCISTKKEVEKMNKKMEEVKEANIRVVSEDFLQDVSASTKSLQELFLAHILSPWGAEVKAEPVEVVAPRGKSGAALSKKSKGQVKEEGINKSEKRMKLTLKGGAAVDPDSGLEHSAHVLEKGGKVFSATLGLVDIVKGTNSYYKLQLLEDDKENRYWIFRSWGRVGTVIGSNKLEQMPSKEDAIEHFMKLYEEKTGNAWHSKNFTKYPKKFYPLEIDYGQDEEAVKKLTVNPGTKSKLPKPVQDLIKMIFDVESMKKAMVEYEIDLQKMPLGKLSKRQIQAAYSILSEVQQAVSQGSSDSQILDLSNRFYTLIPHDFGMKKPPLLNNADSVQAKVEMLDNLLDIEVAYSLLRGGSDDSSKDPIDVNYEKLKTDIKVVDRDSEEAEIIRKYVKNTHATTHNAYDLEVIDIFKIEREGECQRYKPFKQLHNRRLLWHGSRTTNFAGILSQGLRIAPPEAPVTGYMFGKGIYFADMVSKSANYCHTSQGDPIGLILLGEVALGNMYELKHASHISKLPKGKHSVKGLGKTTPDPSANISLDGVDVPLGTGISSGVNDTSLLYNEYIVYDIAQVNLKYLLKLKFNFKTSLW
Protocol: Inhibition Constant (IC50) from PARP ELISA
Inhibition of PARP catalytic activity was determined by use of an ELISA-based colorimetric PARP/Apoptosis Assay kit (part number 4684-096-K HT, Trevigen). To each histone coated well in the 96-well plate supplied by the manufacturer (part number 4677-096-P) is added 39 μl of PARP buffer (part number 4671-096-02) and 1 μl of test compound dissolved in DMSO (diluted serially 3-fold 11 times). After mixing, 5 μl of 0.1 nM PARP (part number 4684-096-01) is added and the solution allowed to stand at ambient temperature for 10 minutes. PARP catalysis is initiated with the addition of 5 μl of 100 μM β-nicotinamide adenine dinucleotide (NAD+) (part number 4684-096-02) with activated DNA (part number 4671-096-06). After 10 minutes of catalysis the reaction is quenched by solvent aspiration followed by irrigation of the assay wells 4 times with phosphate buffered saline (PBS) containing 0.1% t-Octylphenoxypolyethoxyethanol (Triton® X-100). Mouse Anti-poly ADP ribose (PAR) monoclonal antibody, goat antimouse immunoglobulin G (IgG)-horse radish peroxidase (HRP) conjugate and HRP substrate are added according to the manufacture's specifications to generate a colorimetric signal proportional to PARP catalytic activity. An IC50 for the test compound is calculated from the equation Absorbance=(Amax−background)/(1+([cmpd]/IC50)^n)+background fit to the 12 point test compound concentration gradient via nonlinear least squares.

Jurkat cell line = assay: PARP cellular chemopotentiation assay (MTS cell viability with and without TMZ); format: cell-based; settings: ratio of EC50 for inhibition of cell viability without and with 100 μM TMZ; Jurkat cells, 96 hours of treatment
In short: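 Jurkat cells, 10,000/well, pre-cultured 24 h, then treated 96 h with serial compound dilutions (0.5% DMSO) with or without 100 μM TMZ. Viability by MTS conversion (OD490), normalized to DMSO controls; EC50 from curve fits, PF50 = EC50 without TMZ / EC50 with TMZ.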

SMILES	IC50 (PARP)	PF50 (Jurkat cell line)
CC(C)N1CC(=O)Nc2cc(CN3CC=C(c4ccc(Cl)cc4)CC3)cnc21 [Compound 94, 7-((4-(4-chlorophenyl)-5,6-dihydropyridin-1(2H)-yl)methyl)-4-isopropyl-3,4-dihydropyrido[2,3-b]pyrazin-2(1H)-one]	≥ 50.1 nM	≧0
CC(C)N1CC(=O)Nc2cc(CN3CCN(c4ccc(Cl)cc4)CC3)cnc21 [Compound 95, 7-((4-(4-chlorophenyl)piperazin-1-yl)methyl)-4-isopropyl-3,4-dihydropyrido[2,3-b]pyrazin-2(1H)-one]	≥ 50.1 nM	≧0
O=C1CC2CCCN2c2ncc(CN3CCN(c4ccc(Cl)cc4)CC3)cc2N1 (stereo not drawn) [Compound 104, 3-((4-(4-chlorophenyl)piperazin-1-yl)methyl)-7a,8,9,10-tetrahydro-5H-pyrido[3,2-b]pyrrolo[1,2-d][1,4]diazepin-6(7H)-one]	≥ 50.1 nM	≧0
CCNC(=O)c1ccc(N2CCN(Cc3cnc4c(c3)NC(=O)[C@@H]3CCCCN43)CC2)c(F)c1 [Compound 109, (S)—N-ethyl-3-fluoro-4-(4-((6-oxo-6,6a,7,8,9,10-hexahydro-5H-dipyrido[1,2-a:3′,2′-e]pyrazin-3-yl)methyl)piperazin-1-yl)benzamide]	15.8 to 39.8 nM	>2000
CCNC(=O)c1ccc(N2CCN(Cc3cnc4c(c3)NC(=O)[C@@H]3CCCCN43)CC2)c(Cl)c1 [Compound 110, (S)-3-chloro-N-ethyl-4-(4-((6-oxo-6,6a,7,8,9,10-hexahydro-5H-dipyrido[1,2-a:3′,2′-e]pyrazin-3-yl)methyl)piperazin-1-yl)benzamide]	15.8 to 39.8 nM	>5000
CNC(=O)c1ccc(N2CCN(Cc3cnc4c(c3)NC(=O)[C@@H]3CCCCN43)CC2)c(Cl)c1 [Compound 111, (S)-3-chloro-N-methyl-4-(4-((6-oxo-6,6a,7,8,9,10-hexahydro-5H-dipyrido[1,2-a:3′,2′-e]pyrazin-3-yl)methyl)piperazin-1-yl)benzamide]	15.8 to 39.8 nM	>5000
CNC(=O)c1ccc(N2CCN(Cc3cnc4c(c3)NC(=O)[C@@H]3CCCCN43)CC2)c(C)c1 [Compound 113, (S)—N,3-dimethyl-4-(4-((6-oxo-6,6a,7,8,9,10-hexahydro-5H-dipyrido[1,2-a:3′,2′-e]pyrazin-3-yl)methyl)piperazin-1-yl)benzamide]	≥ 50.1 nM	>2000
CCNC(=O)c1ccc(N2CCN(Cc3cnc4c(c3)NC(=O)[C@@H]3CCCCN43)CC2)c(C)c1 [Compound 114, (S)—N-ethyl-3-methyl-4-(4-((6-oxo-6,6a,7,8,9,10-hexahydro-5H-dipyrido[1,2-a:3′,2′-e]pyrazin-3-yl)methyl)piperazin-1-yl)benzamide]	≥ 50.1 nM	>2000
Cc1cc(C(=O)NC2CC2)ccc1N1CCN(Cc2cnc3c(c2)NC(=O)[C@@H]2CCCCN32)CC1 [Compound 115, (S)—N-cyclopropyl-3-methyl-4-(4-((6-oxo-6,6a,7,8,9,10-hexahydro-5H-dipyrido[1,2-a:3′,2′-e]pyrazin-3-yl)methyl)piperazin-1-yl)benzamide]	15.8 to 39.8 nM	>2000
O=C(NC1CC1)c1ccc(N2CCN(Cc3cnc4c(c3)NC(=O)[C@@H]3CCCCN43)CC2)c(Cl)c1 [Compound 117, (S)-3-chloro-N-cyclopropyl-4-(4-((6-oxo-6,6a,7,8,9,10-hexahydro-5H-dipyrido[1,2-a:3′,2′-e]pyrazin-3-yl)methyl)piperazin-1-yl)benzamide]	15.8 to 39.8 nM	>5000

Now from value to compound, other results behind:

IC50 (PARP)	SMILES	PF50 (Jurkat cell line)
15.8 to 39.8 nM	CNC(=O)c1ccc(N2CCN(Cc3cnc4c(c3)NC(=O)[C@@H]3CCCCN43)CC2)nc1 [Compound 77, (S)—N-methyl-6-(4-((6-oxo-6,6a,7,8,9,10-hexahydro-5H-dipyrido[1,2-a:3′,2′-e]pyrazin-3-yl)methyl)piperazin-1-yl)nicotinamide]	>10
15.8 to 39.8 nM	O=C1Nc2cc(CN3CCN(c4ccc(Cl)cc4)CC3)cnc2N2CCSCC12 (stereo not drawn) [Compound 87, 3-((4-(4-chlorophenyl)piperazin-1-yl)methyl)-6a,7,9,10-tetrahydropyrido[3,2-e][1,4]thiazino[4,3-a]pyrazin-6(5H)-one]	>10
≤ 12.6 nM	N#Cc1ccc(N2CCN(Cc3cnc4c(c3)NC(=O)[C@@H]3CSCCN43)CC2)cc1 [Compound 90, (R)-4-(4-((6-oxo-5,6,6a,7,9,10-hexahydropyrido[3,2-e][1,4]thiazino[4,3-a]pyrazin-3-yl)methyl)piperazin-1-yl)benzonitrile]	>10
15.8 to 39.8 nM	N#Cc1ccc(N2CCN(Cc3cnc4c(c3)NC(=O)[C@@H]3CCN43)CC2)cc1 [Compound 102, (S)-4-(4-((6-oxo-6,6a,7,8-tetrahydro-5H-azeto[1,2-a]pyrido[3,2-e]pyrazin-3-yl)methyl)piperazin-1-yl)benzonitrile]	≧0
15.8 to 39.8 nM	N#Cc1ccc(N2CCN(Cc3cnc4c(c3)NC(=O)CC3CCCN43)CC2)cc1 (stereo not drawn) [Compound 103, 4-(4-((6-oxo-6,7,7a,8,9,10-hexahydro-5H-pyrido[3,2-b]pyrrolo[1,2-d][1,4]diazepin-3-yl)methyl)piperazin-1-yl)benzonitrile]	≧0
15.8 to 39.8 nM	C[C@H]1CN(c2ccc(C#N)cc2)CCN1Cc1cnc2c(c1)NC(=O)[C@@H]1CSCCN21 [Compound 105, 4-((S)-3-methyl-4-(((R)-6-oxo-5,6,6a,7,9,10-hexahydropyrido[3,2-e][1,4]thiazino[4,3-a]pyrazin-3-yl)methyl)piperazin-1-yl)benzonitrile]	>10
≤ 12.6 nM	CCNC(=O)c1ccc(N2CCN(Cc3cnc4c(c3)NC(=O)[C@@H]3CSCCN43)CC2)c(F)c1 [Compound 106, (R)—N-ethyl-3-fluoro-4-(4-((6-oxo-5,6,6a,7,9,10-hexahydropyrido[3,2-e][1,4]thiazino[4,3-a]pyrazin-3-yl)methyl)piperazin-1-yl)benzamide]	>5000
15.8 to 39.8 nM	CCNC(=O)c1ccc(N2CCN(Cc3cnc4c(c3)NC(=O)[C@@H]3CSCCN43)CC2)c(Cl)c1 [Compound 107, (R)-3-chloro-N-ethyl-4-(4-((6-oxo-5,6,6a,7,9,10-hexahydropyrido[3,2-e][1,4]thiazino[4,3-a]pyrazin-3-yl)methyl)piperazin-1-yl)benzamide]	>2000
≤ 12.6 nM	CNC(=O)c1ccc(N2CCN(Cc3cnc4c(c3)NC(=O)[C@@H]3CSCCN43)CC2)c(Cl)c1 [Compound 108, (R)-3-chloro-N-methyl-4-(4-((6-oxo-5,6,6a,7,9,10-hexahydropyrido[3,2-e][1,4]thiazino[4,3-a]pyrazin-3-yl)methyl)piperazin-1-yl)benzamide]	>500
≤ 12.6 nM	CNC(=O)c1ccc(N2CCN(Cc3cnc4c(c3)NC(=O)[C@@H]3CCCCN43)CC2)c(F)c1 [Compound 112, (S)-3-fluoro-N-methyl-4-(4-((6-oxo-6,6a,7,8,9,10-hexahydro-5H-dipyrido[1,2-a:3′,2′-e]pyrazin-3-yl)methyl)piperazin-1-yl)benzamide]	>10
≤ 12.6 nM	O=C(NC1CC1)c1ccc(N2CCN(Cc3cnc4c(c3)NC(=O)[C@@H]3CCCCN43)CC2)c(F)c1 [Compound 116, (S)—N-cyclopropyl-3-fluoro-4-(4-((6-oxo-6,6a,7,8,9,10-hexahydro-5H-dipyrido[1,2-a:3′,2′-e]pyrazin-3-yl)methyl)piperazin-1-yl)benzamide]	>5000
